Values of other authors as cited in patent publication US20240016441A1 (priority 2023, published 2024).
Read-outs that look alike come from different tables or passages of the source.

Experiments:
BDNF = details: male athletes, p<0.05
dopaminergic neurons [1] = details: related to a glyoxalase pathway
dopaminergic neurons [2] = details: neurons treated with L-lactate
[3] = for plasma L-lactate to brain metabolism: occipital-parietal lobe
glabellar reflex = details: successful levodopa treatment, patients with Parkinson's disease
[4] = in vivo
[5] = 84 mEq/L at 5 ml*kg^-1*h^-1 for 3.5 hours, single anesthetized patient
[6] = traumatic brain injury patients and healthy controls

For CC(O)C(=O)[O-].[Na+] (racemic) [sodium DL-lactate], the BDNF blood concentration (BDNF) is listed as “increase”.

In the case of C[C@@H](O)C(=O)O [D-lactate], the “survival of dopaminergic neurons” value (dopaminergic neurons [1]) is listed as “increase survival of dopaminergic neurons”.

For C[C@H](O)C(=O)O [L-lactate], the “effect on dopaminergic neurons” value (dopaminergic neurons [2]) is given as “apoptosis of dopaminergic neurons”, the “plasma L-lactate to brain metabolism” value ([3]; basal plasma L-lactate concentrations of ~1.0 mmol/L) is given as 10% and the “plasma L-lactate to brain metabolism” value ([3]; high physiologic plasma concentrations) is given as no more than 60%.

For N[C@@H](Cc1ccc(O)c(O)c1)C(=O)O [levodopa], the glabellar reflex (glabellar reflex) is given as “reversal of the glabellar reflex”.

In the case of C[C@H](O)C(=O)[O-].[Na+] [sodium L-lactate], the adverse effects [4] is listed as “without any adverse effects” and the vital signs [5] is listed as “without any significant change in vital signs”.

For [13CH3]C(O)C(=O)[O-].[Na+] [sodium [3-^13C] L-lactate], the complications [6] is given as “without serious complications”, the “peak L-lactate blood concentration” value [6] is given as 10.6 mg/dL and the adverse effects ([3]; 350 mmol/L, priming dose then continuous infusion for ~120 min) is given as “without any adverse effects”.
